Source: patent publication US9670189B2, “Substituted condensed pyrimidine compounds” (GRÜNENTHAL GMBH, priority 2013, dated 2017)

What was measured:
human PDE4B1 = molecular target: T1, human PDE4B1 (Homo sapiens, UniProt Q07343); assay: cAMP HTRF assay to determine the activity of hPDE4B1; assay type: biochemical; conditions: 1 μM test concentration; human recombinant PDE4B1, cAMP 40 nM; read-out: Inhibition at 1 μM test concentration [%] (Percentage inhibition of PDE4B)
T1 construct: host or cells: Sf9 cells
Method: cAMP HTRF® Assay to Determine the Activity of hPDE4B1
The inhibiting effect of the compounds on the enzyme activity of human PDE4B1 was measured by the quantification of 5′-adenosine monophosphate (5′-AMP), which is formed from 3′,5′-adenosine monophosphate (cAMP). Human recombinant enzyme, expressed in Sf9 cells, and the HTRF (homogeneous time-resolved fluorescence) detection method were used in the assay.
The test compound or water (control) was mixed with the human recombinant PDE4B1 enzyme (4.8 U) in a buffer consisting of 44.4 mM tris-HCl, 5.28 mM MgCl2, 2.64 mM DTT and 0.044% Tween 20 (pH 7.8). After adding the cAMP enzyme substrate (final concentration 40 nM) the mixture was incubated for 30 minutes at room temperature. Then a fluorescence acceptor (Dye2 marked with cAMP), a fluorescence donor (anti-cAMP antibody marked with a europium cryptate) and the non-specific phosphodiesterase inhibitor IBMX (3-isobutyl-1-methylxanthine; final concentration 1 mM) were added. After 60 minutes the fluorescence transfer, which correlates with the amount of remaining cAMP, was measured with a microplate reader (Rubystar, BMG) at λex=337 nm, λem=620 nm and λem=665 nm. The enzyme activity was calculated from the quotient formed from the measured signal at 665 nm and that at 620 nm. The result was expressed as the percentage inhibition of enzyme activity of the control (without PDE4 inhibitor) (literature: N. Saldou et al., Comparison of recombinant human PDE4 isoforms: interaction with substrate and inhibitors, Cell. Signal. Vol. 10, No. 6, 427-440, 1998). The enzyme was omitted for measurement of the basal control.

T1 sequence (Q07343 whole entry): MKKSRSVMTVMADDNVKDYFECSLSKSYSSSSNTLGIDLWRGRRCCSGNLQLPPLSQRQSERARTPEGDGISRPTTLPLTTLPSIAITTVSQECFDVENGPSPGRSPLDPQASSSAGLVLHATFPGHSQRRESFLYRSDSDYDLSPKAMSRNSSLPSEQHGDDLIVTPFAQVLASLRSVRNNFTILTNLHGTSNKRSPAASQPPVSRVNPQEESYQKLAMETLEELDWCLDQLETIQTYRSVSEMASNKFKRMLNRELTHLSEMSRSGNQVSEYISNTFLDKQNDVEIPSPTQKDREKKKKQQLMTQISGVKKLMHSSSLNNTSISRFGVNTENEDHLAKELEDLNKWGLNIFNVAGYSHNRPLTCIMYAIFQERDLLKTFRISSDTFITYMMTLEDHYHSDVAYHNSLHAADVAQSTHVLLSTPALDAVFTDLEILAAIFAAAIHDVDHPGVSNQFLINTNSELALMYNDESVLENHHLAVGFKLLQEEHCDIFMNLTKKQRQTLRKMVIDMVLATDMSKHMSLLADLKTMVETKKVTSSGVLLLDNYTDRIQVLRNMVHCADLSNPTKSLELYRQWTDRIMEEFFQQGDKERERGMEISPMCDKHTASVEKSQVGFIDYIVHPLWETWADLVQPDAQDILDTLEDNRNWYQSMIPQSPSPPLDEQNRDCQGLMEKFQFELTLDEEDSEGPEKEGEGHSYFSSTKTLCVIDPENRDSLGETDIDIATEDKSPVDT

inhibition at 1 µM (human PDE4B1)	melting point	SMILES
68%	263 to 264 °C	COc1ccc(-c2nc3c(c(Oc4ccc(CC(=O)O)cc4)n2)CCC3)cc1Br [Compound 14, 2-(4-(2-(3-Bromo-4-methoxyphenyl)-6,7-dihydro-5H-cyclopenta[d]pyrimidin-4-yloxy)phenyl)acetic acid]
42%		O=C(O)Cc1ccc(Oc2nc(-c3cccc(Br)c3)nc3c2CCC3)cc1 [Compound 54, 2-(4-((2-(3-Bromophenyl)-6,7-dihydro-5H-cyclopenta[d]pyrimidin-4-yl)oxy)phenyl)acetic acid]
65%		Cc1ccc(-c2nc3c(c(Oc4ccc(CC(=O)O)cc4)n2)CCC3)s1 [Compound 58, 2-(4-((2-(5-Methylthiophen-2-yl)-6,7-dihydro-5H-cyclopenta[d]pyrimidin-4-yl)oxy)phenyl)acetic acid]
62%		CC1Cc2nc(-c3ccc(Cl)s3)nc(Oc3ccc(CC(=O)O)cc3)c2C1 (centres unmarked) [Compound 59, 2-(4-((2-(5-Chlorothiophen-2-yl)-6-methyl-6,7-dihydro-5H-cyclopenta[d]pyrimidin-4-yl)oxy)phenyl)acetic acid]
